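Cells were grown in 96-well plates and exposed to each compound for 48 hours at five concentrations; endpoints were interpolated linearly between bracketing concentrations, or set to the highest concentration if not reached. GI50: concentration for 50% inhibition of growth. TGI: concentration producing complete growth inhibition.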 Some results are limits rather than exact numbers.

This note sets out measurements from PubChem BioAssay (NCI).

Holding throughout (assay): NCI anticancer screen, dose series, 48 h
Assay [1] relates to MOLT-4 leukemia.
For assay [2], the system named is CCRF-CEM leukemia.
For assay [3], the system named is MALME-3M melanoma.
Assay [4] concerns SF-295 CNS.
In assay [5] the test system is OVCAR-5 ovarian.
Assay [6] deals with M14 melanoma.
Assay [7] has as its system SR leukemia.
The test system of assay [8] is UACC-257 melanoma.
Assay [9] concerns HS 578T breast.
Assay [10] has as its system CAKI-1 renal.

For the molecule `O=C(Oc1ccc(Cl)cc1[N+](=O)[O-])c1ccccc1`, the TGI in assay [1], in [2], in [3], in [4], in assay [5] and in [6] was above 100 µM throughout. Besides, the TGI in assay [7] and in [8] was above 100 µM each time.

As for `COc1cc(/C=C/C(=O)CC(=O)/C=C/c2ccc(O)c(OC)c2)ccc1O`, the TGI turned out to be 18 µM in assay [1]; 15.6 µM in assay [2]; 58.5 µM in [9]; 27.4 µM in assay [3]; 20.7 µM in assay [4]; 35.3 µM in [5]. The TGI was 16 µM in assay [6], 14.6 µM in assay [7], 23.9 µM in [8] and 25.1 µM in [10].

In the case of `C=C1C(=O)OC2CC1CCC1(C)OC1CCC(C)=CCCC2(C)O` (stereo not given), the TGI in assay [1] worked out at 9.2 µM; in assay [2], 4.56 µM; in assay [3] it was 12.2 µM; in assay [4], 33.8 µM; in assay [5] it was 19.1 µM; in [8] it was 13.9 µM. In addition, the TGI in assay [10] was 7.7 µM.

Turning to `C=CCNS(=O)(=O)c1ncnc2nc[nH]c12`, the TGI in [1] is 41.2 µM; in assay [2], above 100 µM; in [9] it was above 100 µM; in assay [3] it was above 100 µM; in [4] it was above 100 µM; in assay [5] it was above 100 µM. The TGI in assay [6], in assay [7], in [8] and in assay [10] was above 100 µM throughout.

Turning to `C=CCSSCC=C`, the TGI in assay [1] is above 100 µM; in assay [2], above 100 µM; in assay [9], 97.4 µM; in [3] it was above 100 µM; in assay [4], above 100 µM; in [5], above 100 µM. Also, the TGI in assay [6] is above 100 µM; in assay [7], 50.2 µM; in assay [8] it was above 100 µM; in assay [10], above 100 µM.

With `Br/C(=N\Nc1nn[nH]n1)c1ccncc1`, the TGI in assay [1], in assay [2], in [9], in assay [3], in assay [4] and in [5] was above 100 µM in each case. Besides, the TGI in assay [6], in assay [7], in assay [8] and in assay [10] was above 100 µM throughout.

As for `CC(=O)NNC(=O)C1CCCCN1` (stereo not given), the TGI in assay [1], in [2], in assay [9], in [3], in assay [4] and in assay [5] was above 100 µM in each case. In addition, the TGI in [6], in assay [7], in assay [8] and in [10] was above 100 µM throughout.

Take `COc1ccc(NC(=S)N/N=C(\C)c2nc3ncccc3[nH]2)cc1`: the TGI in assay [1] is 43.9 µM; in [2], 24.5 µM; in assay [9] it was above 100 µM; in assay [3], above 100 µM; in [4], above 100 µM; in assay [5] it was above 100 µM. Also, the TGI in assay [7], in assay [8] and in assay [10] was above 100 µM throughout.

On to `CN1CC(CNC(=O)OCc2ccccc2)CC2c3cccc4c3c(cn4C)CC21` (stereo not given), for which the GI50 was 2.36 µM in [1]; 2.48 µM in [2]; 1.99 µM in assay [9]; 1.57 µM in assay [3]; 2.09 µM in assay [4]; 1.98 µM in assay [5]. Besides, the GI50 in assay [6] is 2.14 µM; in [8], 1.42 µM; in assay [10], 1.68 µM. Also, the TGI turned out to be 5.25 µM in assay [1]; 7.81 µM in assay [2]; 6.96 µM in assay [9]; 3.14 µM in assay [3]; 4.76 µM in assay [4]; 4.91 µM in assay [5]. The values for the TGI in assay [6], in [8] and in assay [10] were 4.68 µM, 2.81 µM and 3.65 µM, respectively.

Regarding `COc1c(OC/C=C(\C)CCC=C(C)C)ccc2ccc(=O)oc12`, the TGI in assay [1], in [2], in assay [9], in assay [4], in [5] and in assay [6] was above 100 µM throughout. Besides, the TGI in assay [7], in assay [8] and in [10] was above 100 µM throughout.

As to `COc1ccc(OC)c(CC(C)N)c1` (stereo not given), the TGI in [1], in assay [2], in [3], in assay [4], in assay [6] and in [8] was above 100 µM in each case. The molecule further gave a TGI in assay [10] above 100 µM.

Take `O=C(/C=C/c1ccccc1)N1CCCCC1`: the TGI in [1], in [2], in [9], in assay [4], in [5] and in assay [6] was above 100 µM in each case. The TGI in [7], in [8] and in assay [10] was above 100 µM throughout.

For the molecule `O=C1OCc2cc3cc4c(cc3c(-c3ccc5c(c3)OCO5)c21)OCO4` (tested in a mixture with another compound), the TGI in assay [1] was 72.5 µM; in [2] it was above 100 µM; in assay [9] it was 80.9 µM; in assay [3], above 100 µM; in assay [4], 31.4 µM; in assay [5] it was 96.8 µM. Moreover, the TGI was 32 µM in assay [6], above 100 µM in assay [7], above 100 µM in [8] and 86.7 µM in [10].

For `Cn1c2c3ccc(Cl)cc3nc-2c(Cl)c2ccccc21`, the TGI in assay [1] was above 100 µM; in assay [2] it was above 100 µM; in assay [9], above 100 µM; in assay [3], 34 µM; in assay [4] it was 36.6 µM; in assay [5] it was 38.6 µM. The TGI in assay [6] was 61.3 µM; in assay [7], above 100 µM; in assay [8], 37.4 µM; in assay [10], 32.1 µM.

As for `O=C1OC2CC=CC1C2` (stereo not given), the TGI in assay [1], in assay [2], in assay [3], in assay [4], in assay [5] and in assay [8] was above 100 µM in each case.

As for `O=C(COc1ccc(Cl)c(Cl)c1)N(Cc1ccccc1)Cc1ccc[n+](Cc2ccc(Cl)cc2S(=O)(=O)F)c1`, the TGI is 54.8 µM in [1]; above 100 µM in assay [9]; 54.2 µM in assay [3]; above 100 µM in assay [4]; above 100 µM in assay [5]; above 100 µM in assay [6]. The values for the TGI in [7], in assay [8] and in [10] were 52.4 µM, above 100 µM and above 100 µM, respectively.

Regarding `O=C1CCCC2C3CC(CN12)C1CCCCN1C3` (stereo not given), the TGI in [1], in assay [2], in assay [9], in assay [3], in assay [4] and in [5] was above 100 µM throughout. The TGI in assay [6], in [7], in [8] and in [10] was above 100 µM throughout.

`CCCC(=O)O.CCCC(=O)O.CCCC(=O)O.CCCC(=O)O.[Rh].[Rh]`: the GI50 was 0.0315 µM in assay [1]; 0.0277 µM in assay [2]; 0.157 µM in assay [9]; 0.0309 µM in assay [3]; 0.0569 µM in [6]; 0.0586 µM in assay [7]. For the same molecule, the GI50 in assay [10] is 0.035 µM. The TGI in assay [1] is 0.141 µM; in assay [2], 1.08 µM; in assay [9], 13 µM; in [3] it was 0.102 µM; in assay [6], 0.195 µM; in [7] it was 1.06 µM. The molecule further returned a TGI in assay [10] of 0.106 µM.

With `Cl/C(=C\C=Nc1ccc(I)cc1)c1ccc2ccccc2c1`, the TGI in [1] is 13.6 µM; in assay [2], above 25.1 µM; in assay [9] it was above 87.7 µM; in [3], 42 µM; in assay [4], 51.3 µM; in assay [5], above 64.6 µM. Besides, the TGI was 31.5 µM in assay [6], 19 µM in [7], 33.8 µM in assay [8] and 29 µM in [10].

Consider `c1ccc(C[N+]23CN4CN(CN(C4)C2)C3)cc1`, for which the TGI in assay [1] is 43.9 µM; in assay [2], 32.9 µM; in [9] it was above 100 µM; in [3], above 100 µM; in assay [4], above 100 µM; in assay [5] it was above 100 µM. In addition, the TGI in [6] is 39.8 µM; in assay [8], above 100 µM; in assay [10], above 100 µM.
